Results as given in patent US10183015B2, “Heterocyclic compounds and methods of use” (Medivation Technologies LLC, priority 2015, dated 2019).
Several values for one entry are separate records, joined by “and”; a condition that tells them apart may be missing. Equal entries are not always repeated.

Assays:
Assay type in all cases: in vivo
[1] = test system: 60% high fat Paigen diet induced NASH mouse model; experiment: Short-term Paigen-diet NASH mouse model: NAFLD (NAS) score histopathology; design: NAS score: total / NAS score: steatose / NAS score: inflammation / NAS score: fibrosis / NAS score: hepatocyte ballooning: scale not given here
Experimental: To investigate whether Compound #37 prevents the development of pathology associated with NASH and steatosis in an acute exploratory disease model, a study was conducted using a diet-induced acute liver steatosis model in mice. […]
After acclimation, 8-week old male C57Bl/6J mice (Charles River) weighing about 25 g were randomized in 4 groups according their body weight and treated once daily around noon by oral gavage with vehicle, […] (2-hydroxypropyl)-β-cyclodextrin (HP-β-CD) (n=10); Group 2: Compound #37, 5 mg/kg (n=10) Group 3: Compound #37, 20 mg/kg (n=10) Group 4: Compound #37, 40 mg/kg (n=10). During the treatment period, body weight and food intake (measured over 24h) were measured 3 times per week and once a week, respectively. During the acclimation, all mice were fed a standard diet (Special Diets Services RM1 (E), product no. 801492) and tap water ad libitum. After the acclimation period, mice were fed until the end of the experiment with a 60% high fat Paigen diet (60 kcal % fat, 1.25% cholesterol, and 0.5% cholate; D11061901, Research Diet) and tap water ad libitum.
NAFLD score analysis. A 0.5 cm^3 piece of liver was fixed in 10% formalin for 48-72h, stored in ethanol 70° at 4° C., and processed for eosin/hematoxylin staining and NAFLD score analysis. One section (thickness 3-5 μm) per block was deposited on Superfrost+slides for hematoxylin-eosin staining. Individual slides having a single hepatic lobe section stained with H&E were digitized using a Nanozoomer from Hamamatsu. Sections were evaluated with knowledge of groups. Each section was evaluated and individually scored. A NAFLD scoring system (NAS) adapted from Kleiner et al. (Hepatology 41, 1313-21, 2005), Wu et al. (BMC Vet. Res. 10, 162, 2014), and Lee et al. (J. Lipid Res. 48, 1885-96, 2007). A total of four variables were qualitatively assessed and ranked with a score: (1) hepatocellular steatosis, (2) liver inflammation, (3) lobular fibrosis, and (4) hepatocyte ballooning.

SCD1 = experiment: DIN mouse model: hepatic SCD1 gene expression; design: key to 2^DDct: expression relative to vehicle group, normalized to 18S; settings: for 2^DDct / DDct / Dct / SCD1: Gene Expression: SCD1, 20 mg/kg group; for 18S: Gene Expression: SCD1 table, 18S reference, 20 mg/kg group
Experimental: (§1) Gene expression analysis. Hepatic expression levels of genes involved in lipid metabolism (FAS, SREBP1, ACC1, SCD1), cholesterol metabolism (HMG-CoAR, LDLR), SREBP proteolysis (SCAP, INSIG1), ER stress (PERK), oxidative stress (NRF2), inflammation (MCP-1), and fibrosis (collagen 1α1) were quantified by RTqPCR. Expression level was normalized to 18S gene expression and relative expression to vehicle group was calculated with the […] method.
(§2) Male C57Bl/6J mice (8 weeks old) were housed in enriched ventilated cages (31×12.5×12.7 cm) throughout the experimental phase. Animals' cages litters were changed at least once a week. Animal were housed 5 per cage on inverted 12-hour light cycle (at 09:00 am lights off), 22±2° C. and 55±10% relative humidity. The acclimation period was 20 days. During the acclimation period, all mice were fed a standard diet (RM1 (E) 801492, SDS) and tap water ad libitum. After the acclimation period, mice were fed with the DIN diet (60% fat, cholesterol enriched) and fructose-enriched tap water ad libitum until the end of the experiment.
(§3) At 6 weeks of diet, mice were 4-hour fasted (09:00 am to 1:00 pm) and blood (150 μl/EDTA) was collected at 01:00 pm by retro-orbital bleeding under isoflurane anesthesia. Mice were then allocated in 2 homogenous groups (n=12/group) according to their plasma levels of ALT (average levels: 685U/L), AST (average levels: 627U/L) and HOMA-IR index (average value: 4.7), into 2 homogenous groups (see values at day 0 in Tables 15A and 15B ALT/AST and Tables 16A and 16B for HOMA-IR). Mice were then treated once daily by oral gavage with vehicle (Group 1) or Compound #37 at 20 mg/kg (Group 2) for 70 days.
(§4) Hepatic expression levels of genes involved in lipid (FAS, SREBP1, ACC1, SCD1), cholesterol metabolism (HMG-CoAR, LDLR), in SREBP proteolysis (SCAP, INSIG1), in ER stress (PERK), oxidative stress (NRF2), and inflammation (MCP-1) were not changed. However, expression of collagen 1α1, involved in liver fibrosis, was reduced by 66% in mice treated with Compound #37 (p<0.05 vs. vehicle).

ACC1 = experiment: DIN mouse model: hepatic ACC1 gene expression; design: key to 2^DDct: expression relative to vehicle group, normalized to 18S; settings: for 2^DDct / ACC1 / DDct / Dct: Gene Expression: ACC1, 20 mg/kg group; for 18S: Gene Expression: ACC1 table, 18S reference, 20 mg/kg group
Experimental: as §1, §2, §3, §4

[2] = 5 mg/kg, 21 days, group mean, n 10
[3] = 20 mg/kg, 21 days, group mean, n 6
[4] = 40 mg/kg, 9 days, group mean, n 4

CC(C)Cc1cc(-c2nc(-c3ccc(NS(=O)(=O)C(F)(F)F)cc3Cl)cs2)ccn1 [Compound 37, N-(3-chloro-4-(2-(2-isobutylpyridin-4-yl)thiazol-4-yl)phenyl)-1,1,1-trifluoromethanesulfonamide]
animals with Grade 1 hepatocellular steatosis ([1]; 5 mg/kg, 21 days): 9/10
animals with grade-3 inflammation ([1]; 5 mg/kg, 21 days): 4/10
animals with limited periportal fibrosis (mostly Grade 1) ([1]; 5 mg/kg, 21 days): 10/10
NAS score: fibrosis [1, 2]: 1.2
NAS score: hepatocyte ballooning [1, 2]: 0.3
NAS score: inflammation [1, 2]: 2
NAS score: steatose [1, 2]: 1.1
NAS score: total [1, 2]: 4.6
NAS score: total ([1]; 5 mg/kg, 21 days, individual animals): 4 (2×) and 5 (4×) and 3 (2×) and 6 (2×)
animals with Grade 1 hepatocellular steatosis ([1]; 20 mg/kg, 21 days): 3/6
animals with grade-3 inflammation ([1]; 20 mg/kg, 21 days): 1/6
animals with limited periportal fibrosis (mostly Grade 1) ([1]; 20 mg/kg, 21 days): 3/6
NAS score: fibrosis [1, 3]: 0.5
NAS score: hepatocyte ballooning [1, 3]: 0
NAS score: inflammation [1, 3]: 1.67
NAS score: steatose [1, 3]: 0.5
NAS score: total [1, 3]: 2.67
NAS score: total ([1]; 20 mg/kg, 21 days, individual animals): 2 (2×) and 3 (2×) and 5 and 1
NAS score: fibrosis [1, 4]: 0
NAS score: hepatocyte ballooning [1, 4]: 1
NAS score: inflammation [1, 4]: 0
NAS score: steatose [1, 4]: 2
NAS score: total [1, 4]: 3
NAS score: total ([1]; 40 mg/kg, 9 days, individual animals): 3
2^DDct (SCD1; individual animal): 1.76 and 2.30 and 0.58 and 0.87 and 0.84 and 1.40 and 1.54 and 1.64 and 0.61 and 0.42 and 2.57
DDct (SCD1; individual animal): −0.81 and −1.20 and 0.78 and 0.20 and 0.26 and −0.48 and −0.62 and −0.71 and 0.72 and 1.25 and −1.36
Dct (SCD1; individual animal): 4.5 and 4.11 and 6.09 and 5.51 and 5.57 and 4.83 and 4.69 and 4.6 and 6.03 and 6.56 and 3.95
SCD1 (SCD1; individual animal): 17.05 and 16.66 and 18.93 and 17.94 and 17.92 and 17.42 and 16.42 and 17.11 and 17.53 and 18.11 and 16.3
2^DDct (SCD1; mean, n 11): 1.32
DDct (SCD1; mean, n 11): −0.18
Dct (SCD1; mean, n 11): 5.1
SCD1 (SCD1; mean, n 11): 17.4
18S (SCD1; individual animal, 20 mg/kg): 12.55 (2×) and 12.84 and 12.43 and 12.35 (2×) and 12.59 and 11.73 and 12.51 and 11.5 and 11.55
18S (SCD1; mean, n 11): 12.3
2^DDct (ACC1; individual animal): 1.62 and 1.20 and 0.21 and 1.19 and 0.20 and 1.29 and 0.79 and 0.67 and 0.34 and 0.23 and 1.77
ACC1 (ACC1; individual animal): 27.74 and 28.17 and 31 and 28.06 and 30.55 and 28.11 and 27.95 and 28.97 and 28.95 and 29.55 and 27.41
DDct (ACC1; individual animal): −0.69 and −0.26 and 2.28 and −0.25 and 2.32 and −0.36 and 0.34 and 0.58 and 1.57 and 2.12 and −0.82
Dct (ACC1; individual animal): 15.19 and 15.62 and 18.16 and 15.63 and 18.2 and 15.52 and 16.22 and 16.46 and 17.45 and 18 and 15.06
2^DDct (ACC1; mean, n 11): 0.86
ACC1 (ACC1; mean, n 11): 28.8
DDct (ACC1; mean, n 11): 0.62
Dct (ACC1; mean, n 11): 16.5
18S (ACC1; individual animal, 20 mg/kg): 12.55 (2×) and 12.84 and 12.43 and 12.35 (2×) and 12.59 and 11.73 and 12.51 and 11.5 and 11.55
18S (ACC1; mean, n 11): 12.3
